The source of these data is PMC8373237 (Antimicrobial Agents and Chemotherapy, 2021).

Converted amounts (≈) assume the structure as drawn. Where two headings read alike, the source gives them in different places. Marks after values point to notes of the source that are not given here. Square brackets hold non-standard residues; d marks the D form. Peptide text beside a SMILES is read from it. NPrGly = CCCNCC(=O)O; Sar = CNCC(=O)O

Data set [1] concerns Salmonella flagellar T3SS (FliC, FliD secretion). Format: cell-based, Salmonella enterica Typhimurium. Set-up: key to Fla fliC (Table 2): NE: No effect observed.
Data set [2] relates to P. aeruginosa (PAO1). The data set is classed as cell-based, Pseudomonas aeruginosa.
For data set [3], the system named is Y. enterocolitica Ysa T3SS (YspF secretion). Format: cell-based, Yersinia enterocolitica.
Data set [4] relates to P. aeruginosa PA103 T3SS (ExoU secretion). Format: cell-based, Pseudomonas aeruginosa.
Data set [5] has as its system Salmonella enterica Typhimurium SPI-1 T3SS (SipA, SipC secretion). Format: cell-based.
Data set [6] concerns Y. pseudotuberculosis. Format: cell-based, Yersinia pseudotuberculosis. To be noted: 2xYT, 9-120 µM, 12 h.
Data set [7] has as its system C. trachomatis serovar L2 in HeLa cells. The data set can be described thus: Chlamydia infection of HeLa cells (primary and secondary infection). Format: cell-based, Chlamydia trachomatis. Set-up: key to lowest known inhibitory concentration (∼), cell-based infection assay, Chlamydia: NE: No effect observed. Here is the method: Primary infections. HeLa cell monolayers were infected with C. trachomatis serovar L2 at a multiplicity of infection (MOI) of 1.0 in the presence of one of the following compounds at 9 μM: DMSO, 4EpDN, or 4EpDN 2Sar. Cells were incubated for 24 h in the presence of the above-listed compounds at 37°C and then fixed with 4% paraformaldehyde (PFA). Cells were stained for IncA (Chlamydia inclusion membrane marker), DNA (with DAPI), and MOMP (Chlamydia major outer membrane protein) simultaneously. This method of staining allows visualization of the inclusion independent of MOMP synthesis or transport. The percentage of cells infected (i.e., stained positively for the listed Chlamydia markers) in the presence of the compounds was quantified using confocal microscopy. Quantifications of inclusion take into account both DAPI staining and indirect immunofluoresence with an antibody to MOMP. Ten randomly selected fields of view were measured per experiment. The data represent three biological replicates.
Secondary infections. HeLa cell monolayers were infected with C. trachomatis serovar L2 at an MOI of 1.0 in the presence of one of the following compounds at 9 μM: DMSO, 4EpDN, or 4EpDN 2Sar. Cells were incubated for 48 h in the presence of the above-listed compounds at 37°C. Infected cells were then lysed, and the lysate was applied to fresh HeLa monolayers to enumerate infectious particles. These secondary infections were fixed in 4% PFA at 24 hpi and were stained against MOMP and DNA. The infectious units per ml (IFU/ml) were calculated by averaging the number of infected cells in each of 10 randomly selected fields of view at ×40 magnification on a confocal microscope and multiplying this by the appropriate dilution and area factors. The data represent four biological replicates.

Data set [8] is described as follows: Kinetic solubility. The data set is classed as physicochemical. Here is the method: […] Then, […] of 15 mM stock compound was added to make a solution of 120 μM final concentration with 0.8% DMSO. The solution was shaken at 37°C for ∼2 h. The solution was passed over a 0.7- μM glass fiber filter. Then, the solution was diluted 1:4 in acetonitrile to crash out any proteins. The solution was centrifuged at 500 × g for 10 min. Avoiding the pellet, 10 μl of supernatant was added to a fresh plate with 90 μl of acetonitrile. The final dilution is 40 times lower. Next, 10 μl of 40× dilution of solution was injected on the Orbi-trap. A 1 μM standard was used for the ratiometric comparison, and the assay was done in triplicate.

The subject of data set [9] is Ssa-Esc T3SS, EPEC/EHEC. The note with it: culture-based secretion assay, cited from earlier work.
The subject of data set [10] is Salmonella enterica Typhimurium SPI-1 T3SS. To be noted: cited from earlier work.
The test system of data set [11] is Ssa-Esc T3SS, EPEC/EHEC. Set-up: method as in PMID 33316970. The note with it: translocation assay; ref [109]; read-out: IC50, EspF translocation; cited from earlier work.
The subject of data set [12] is Yersinia pseudotuberculosis Ysc T3SS. The note with it: culture-based secretion assay; ref [87]; cited from earlier work.
In data set [13] the test system is Salmonella enterica Typhimurium SPI-1 T3SS. The note with it: culture-based secretion assay; ref [87]; cited from earlier work.
Data set [14] deals with Yersinia pseudotuberculosis Ysc T3SS. To be noted: cited from earlier work.
Data set [15] relates to Pseudomonas aeruginosa Psc T3SS. The note with it: cell-based infection assay, ref [67], cited from earlier work.
The test system of data set [16] is Chlamydiales T3SS, Chlamydia. The note with it: cell-based infection assay, ref [67], cited from earlier work.
Data set [17] deals with Ssa-Esc T3SS, EPEC/EHEC. To be noted: biochemical assay, cited from earlier work.
The subject of data set [18] is Yersinia pseudotuberculosis Ysc T3SS. To be noted: cited from earlier work. The source holds these as a separate data set.
The subject of data set [19] is Salmonella enterica Typhimurium SPI-1 T3SS. The note with it: translocation assay, cited from earlier work.

One may read the IC50 as the midpoint of a concentration-inhibition curve. The solubility is the concentration that dissolves in the medium under given conditions. The EC50 is the concentration that produces a half-maximal response.

As for `CCCN1CC(=O)N(C)CC(=O)N[C@@H](CC(C)C)C(=O)N[C@@H]([C@@H](C)CC)C(=O)N[C@H](CC(C)C)C(=O)N[C@H](Cc2ccccc2)C1=O` [4EpDN 2Sar, 4-EpD1,2N 2Sar] (cyclo(I[dL][dF][NPrGly][Sar]L)), the “Fla fliC (Table 2)” value in data set [1] is recorded as “NE^d”. In [1], the “effect on FliC secretion, in words” value is reported as “no significant effect”. Besides, the “effect on FliD secretion, in words” value in data set [1] is “no significant effect”. For the same compound, the “bacterial viability in broth culture” value in data set [2] and in data set [6] was “did not affect bacterial viability” each time. Also, in data set [3], the “secretion of YspF, in words” value is “did not affect its secretion”. Also, the “T3SS inhibitory activity (ExoU secretion), in words” value in data set [4] is “significantly reduced activity”. The “inhibition of ExoU secretion” value in [4] (9 µM) and in data set [4] (60 µM) was “no effect” each time. Also, the IC50 in data set [4] (read-out: IC50 (Table S1)) is roughly 140 µM; in data set [4] (read-out: IC50, inhibition of secretion of T3SS effector ExoU) it was 140 µM. For the same compound, the “concentrations at which inhibition of SipC and SipA secretion was seen” value in data set [5] is recorded as “greater than 30 μM”. The “lowest known inhibitory concentration (∼), SipAC secretion” value in [5] is recorded as “∼30 SipAC^b μM”. For the same compound, the “inhibition of formation of infectious progeny” value in [7] (9 μM, EBs collected at 48 hpi, fresh monolayers 24 h) is given as “not”. Besides, the “decrease of primary inclusion formation” value in [7] (9 μM, HeLa cells, 24 hpi) was “not”. Also, in data set [7] (Table 2, Chlamydiales), the “lowest known inhibitory concentration (∼), cell-based infection assay, Chlamydia” value is reported as “NE^d”. Also, the solubility in data set [8] (DMEM (no antibiotics)) and in [8] (M9) was 61 µM (≈ 40.1 µg/mL) throughout.
As to `C/C=C\C=C\[C@@H]1O[C@](O)([C@H](CC)C(=O)NC/C=C/C=C(\C)[C@@H](OC)[C@@H](C)[C@@H]2O[C@H](/C=C/C=C/C=C(\C)C(=O)c3c(O)ccn(C)c3=O)[C@H](O)[C@@H]2O)[C@H](O)[C@H](O)C1(C)C` [Aurodox], in [9] (ref [103]), the “IC50, EspABCD secretion” value is 0.5 μg/ml EspABCD^b.
As for `O=C/C=C/c1ccccc1` [Cinnamaldehyde], the “lowest known inhibitory concentration (∼), SPI-1, SipAB” value in [10] (footnotes c and e: cell-based infection assay, SipAB biochemical assay, ref [106]) was “∼100^c SipAB^e μM”.
For the compound `O=C(O[C@@H]1Cc2c(O)cc(O)cc2O[C@@H]1c1cc(O)c(O)c(O)c1)c1cc(O)c(O)c(O)c1` [Epigallocatechin gallate], in data set [11], the IC50 was 1.8 µM. In addition, the “lowest known inhibitory concentration (∼), Yops secretion” value in [12] is given as “∼16 μg/ml Yops^b”. For the same compound, the “lowest known inhibitory concentration (∼), Sips secretion” value in data set [13] is on record as “∼12μg/ml Sips^b”. For the same compound, in [9] (ref [87]), the “lowest known inhibitory concentration (∼), EspB secretion” value is on record as “∼16 μg/ml EspB^b”.
On to `O=[N+]([O-])c1cc(CN2CCN(c3ccccc3)CC2)c(O)c2ncccc12` [INP1750], for which the EC50 in data set [14] is 12.4 µM. Moreover, the “lowest known inhibitory concentration (∼), PA” value in data set [15] ([68]) is “∼80^c μM”. In addition, the “MIC, Chlamydia” value in data set [16] ([68]) was 25 MIC^c μM.
On to `O=[N+]([O-])c1cc(CN2CCN(c3ccc(F)cc3)CC2)c(O)c2ncccc12` [INP1855], for which the EC50 in data set [14] is 6.3 µM. Also, the “lowest known inhibitory concentration (∼), PA” value in data set [15] ([69]) is “∼60^c μM”. Also, the “MIC, Chlamydia” value in [16] ([69]) is on record as 3.13 MIC^c μM.
Turning to `O=C(N/N=C/c1ccc(O)cc1O)c1ccc([N+](=O)[O-])cc1` [ME0055], the “lowest known inhibitory concentration (∼), LEE genes” value in data set [17] (ref [76]) is reported as “∼20 LEE genes^e μM”.
`C/C=C(\C)C(O)C(C)/C=C(C)/C=C/C/C(C)=C/Cc1[nH]c(OC)cc(=O)c1C` (centres unmarked) [Mer-A 2026B]: in data set [18], the “lowest known inhibitory concentration (∼), YopM translocation” value is listed as “∼36; ∼9 YopM^f μM”.
On to `O=c1c(O)c(-c2cc(O)c(O)c(O)c2)oc2cc(O)cc(O)c12` [Myricetin], for which the “lowest known inhibitory concentration (∼), SipA/B translocation” value in data set [19] (ref [107]) is “∼4 μg/ml SipA/B^f”.
In the case of `C=CCc1ccc(Oc2cc(CC=C)cc(O)c2O)cc1` [Obovatol], the 50% inhibitory concentration (IC50) in data set [10] (cell-based infection assay, ref [89]) is 19.8 µM.
Consider `C/C=C(\C)[C@H](O)[C@H](C)/C=C(C)/C=C/C/C(C)=C/Cc1nc(OC)c(OC)c(O)c1C` [Piercidin A1], for which the “lowest known inhibitory concentration (∼), YopM translocation” value in data set [18] was “∼36; ∼9 YopM^f μM”.
With `COCCn1c2c([n+](Cc3cnccn3)c1C)C(=O)c1ccccc1C2=O` [Sepantronium bromide (YM155), Sepantronium bromide], the “lowest known inhibitory concentration (∼), SseK1/SseK2, NleB” value in data set [17] (ref [110]) is recorded as “∼2 SseK1/SseK2^e, NleB^e μM”.
As to `Cc1ccc(C(C)C)c(O)c1` [Thymol], in data set [19] (ref [90]), the “lowest known inhibitory concentration (∼), SipA translocation” value is “∼0.2 mM SipA^f”.
With Tannic acid, the IC50 in [11] is 0.65 µM.
